Data reported in USRE48253E1, “Methotrexate adjuvants to reduce toxicity and methods for using the same” (Tosk, Inc., priority 2008, dated 2020).

Assays:
[1] = test system: UPase knockout (19519) Drosophila melanogaster; assay: Fly Study II: MTX lethality in UPase knockout flies; assay type: in vivo
Experimental: (§1) Embryos of UPase knockout (19519) Drosophila melanogaster were orally exposed to a dose range of MTX doses in food admix. Embryos of Wild-type (Oregon-R) were orally exposed to the same dose range of MTX in presence and absence of 0.04 mg TK-112690. Scoring was based on life or death 15 days after initiation of MTX exposure. […] Wild-type D. melanogaster are sensitive to lethal effects of ≥0.1 mg MTX.
(§2) The aim of this study was to evaluate the lethal effects of a range (0.001, 0.01, 0.05, 0.1, 0.2, 0.4 mg) of doses of orally fed MTX in wild-type (Ore-R) and UPase mutant Drosophila melanogaster. Embryos of UPase knockout (19519) Drosophila melanogaster were orally exposed to a dose range of MTX (0.001, 0.01, 0.05, 0.1, 0.2, 0.4 mg) in food admix. Embryos of Wild-type (Oregon-R) were orally exposed to the same dose range of MTX in presence and absence of 0.04 mg TK-112690. Scoring was based on life or death 15 days after initiation of MTX exposure.

CCRF-CEM human tumors = assay: Mouse Study IV: xenograft with CCRF-CEM implants; assay type: in vivo, SCID mice
Experimental: In this study, n=10 SCID mice per dose group were treated with CCRF-CEM human tumors and the tumors allowed to grow to a size of approximately 100 mg. Then the animals were treated by intraperitoneal (ip) injection with either control 20% DMSO/80% PBS (1×/day)×5 days (Group 1), MTX 7.5 mg/kg/injection (1×/day)×5 days (Group 2) or MTX 7.5 mg/kg/inj. (1×/day)×5 days+TK-112690 30 mg/kg/inj.±3 hrs (group 3). The Figure provides tumor sizes in each of the 3 groups on Day 27 of the study.
A xenograft study was performed to analyze the effect of TK-112690. administration on the in vivo efficacy of MTX against a human cancer. Human CCRF-CEM (T-ALL) cells were implanted subcutaneously into SCID mice. Tumor volumes were recorded on a regular basis, and once tumors had become established, treatment was given. […] All treatments were given ip, and TK-112690 was give 3 hours prior to and 3 hours after MTX administration.

C57Bl/6 female mice = assay: Mouse Study II: MTX-induced loss of mucosal permeability (plasma iodixanol); assay type: in vivo; conditions: day 7
Experimental: C57Bl/6 female mice (n=7) were treated intraperitoneal (ip) with 100 mg/kg MTX on days 2, 3 and 4 with and without 60 mg/kg TK-112690 (ip) three hours before, and after, MTX injections. On day 7, mucosal barrier injury was estimated by measuring plasma concentrations of orally administered iodixanol determined by HPLC using UV detection (Boxplots with minimum and maximum values (black lines). Orally administered iodixanol is not absorbed absent an increase in mucosal permeability. Group 1=saline control, Group 2=MTX and Group 3=MTX+TK-112690.
The aim of this study was to evaluate the ability of a representative a 2,2′-anhydropyrimidine test article to mitigate MTX-induced loss of mucosal permeability. C57Bl/6 female mice (n=7) were treated (ip) with 100 mg/kg MTX on days 2, 3 and 4 with and without 60 mg/kg TK-112690 (ip) three hours before, and after, MTX injections. On day 7, mucosal barrier injury was estimated by measuring plasma concentrations of orally administered iodixanol determined by HPLC using UV detection. Orally administered iodixanol is not absorbed absent an increase in mucosal permeability.

[2] = test system: Wild-type (Oregon-R) Drosophila melanogaster; assay: Fly Study II: MTX lethality in wild-type flies; assay type: in vivo; conditions: for MTX dose with lethal effects in wild-type flies: orally in food admix, scored 15 days after initiation
Experimental: as §1, §2

C57BL/6 mice = assay: Mouse Study III: MTX-induced infection measured as WBC counts; assay type: in vivo; conditions: Day 11
Experimental: C57BL/6 mice (n=10/dose group), treated i.p. 50 mg/kg MTX on Day 1, 2, 3, 4, 6 and 8 along with 60 mg/kg TK-1126901.p. 3 hr±MTX followed by single daily doses TK-112690 on days not treated with MTX. On Day 11, the animals were sacrificed and hematology performed on the resulting blood. Group 1=saline control, Group 2=MTX control and Group 3=MTX+TK-112690.
Several parameters have been examined in an effort to develop a model to confirm the protection from mucositis observed in the LPS/MTX assay. On examination of complete blood counts (CBCs), consistently elevated levels of white blood cell counts (WBCs) are observed when mice are treated with MTX (FIG. 4). This increase is not observed in animals that are also treated with TK-112690 (FIG. 4). […] LPS is a large molecule on the outer membrane of Gram negative bacteria. Tissues exposed to LPS express pro-inflammatory cytokines such as TNF-α and […]. Increases in these cytokines due to exposure of tissues to LPS generate an immune response which, in turn, increases WBCs.
For the study whose data are presented in FIG. 4, C57BL/6 mice (n=10/dose group) were treated i.p. with 50 mg/kg MTX on Day 1, 2, 3, 4, 6 and 8 along with 60 mg/kg TK-1126901.p. 3 hr±MTX followed by single daily doses TK-112690 on days not treated with MTX. On Day 11, the animals were bled and hematology performed on the resulting blood samples. […]

| Compound | lethal effects of MTX in UPase knockout flies ([1]; MTX 0.001-0.4 mg orally) | tumor volume day 27, treatment vs saline (CCRF-CEM human tumors; MTX 7.5 mg/kg/injection ip (1×/day)×5 days) | mucosal barrier injury (plasma concentration of orally administered iodixanol) (C57Bl/6 female mice; 100 mg/kg MTX ip on Days 2, 3 and 4) | MTX dose with lethal effects in wild-type flies [2] | MTX dose with lethal effects in wild-type flies ([2]; listed as Methotrexate) | systemic WBC (C57BL/6 mice; 50 mg/kg MTX ip Day 1, 2, 3, 4, 6 and 8) | added protection from methotrexate toxicities in UPase mutant flies ([1]; TK-112690 added to dose range of methotrexate) | tumor volume day 27, MTX+TK-112690 vs MTX (CCRF-CEM human tumors; TK-112690 30 mg/kg ip 3 hours prior to and after MTX 7.5 mg/kg) | protection from MTX-induced mucosal barrier injury (plasma concentration of orally administered iodixanol) (C57Bl/6 female mice; 60 mg/kg ip three hours before and after MTX 100 mg/kg, days 2, 3, 4) | methotrexate dose from whose lethality protection is provided ([2]; 0.04 mg TK-112690) | protection of wild-type flies from lethal effects of MTX ([2]; 0.04 mg TK-112690, MTX 0.001-0.4 mg) | protection from MTX-induced mucositis measured as WBC counts (C57BL/6 mice; 60 mg/kg ip with MTX 50 mg/kg) |
| --- | --- | --- | --- | --- | --- | --- | --- | --- | --- | --- | --- | --- |
| CN(Cc1cnc2nc(N)nc(N)c2n1)c1ccc(C(=O)N[C@@H](CCC(=O)O)C(=O)O)cc1 [MTX, N-[4-[[(2,4-diamino-6-pteridinyl)methyl]methylamino]benzoyl]-L-glutamic acid, reference compound] | resistant to lethal effects | significantly different | experienced mucosal barrier injury | ≥ 0.1 mg | 0.1 mg | increases systemic WBC | – | – | – | – | – | – |
| Cc1cn2c(nc1=O)O[C@H]1[C@H](O)[C@@H](CO)O[C@H]12 [TK-112690, 2,2′-anhydro-5-methyluridine] | – | – | – | – | – | – | does not provide added protection | not significantly different | protected mice from MTX-induced mucosal barrier injury | ≤ 0.4 mg | resistant to the lethal effects | protects from MTX-induced mucositis |
